Measurements as given in patent US9301942B2, “Use of icaritin for the preparation of composition for treating cancer” (priority 2013, dated 2016).

What was measured:
[1] = test system: patients suffering from advanced breast cancer; experiment: Phase Ia dose-escalating study, adverse events; format: in vivo; details: up to 1600 mg/d
Source text: “Maximum Tolerated Dose (MTD)” means the highest dose of a radiological or pharmacological treatment that will produce the desired effect without unacceptable toxicity. In the present invention, MTD is one dose level below the cohort in which 2 patients experienced a drug-related dose limited toxicity in cycle 1.
(§1) The clinical trial includes two phases: Phase I aims to seek the maximum tolerated dose in the patients. Phase II aims to obtain the administration dosage to the patient treatments.
(§2) 1.1 Phase 1a: Dose-escalating study with patients suffering from advanced breast cancer. Cohorts of 3-6 patients received one dose, and 6 planned doses of 50, 100, 200, 400, 800, 1600 mg/day were orally administered to the patients over at least a 28-day cycle. 1.2 Phase 1b: Fixed doses of Icaritin with 600 mg and 800 mg BID (Bis in diem) were administered to patients suffering from advanced solid tumors for at least a 28 day cycle. 2. Major Inclusion Criteria
(§3) Phase Ia: Females of age≧18 years old and ≦65 years old, suffering from advanced breast cancer which was not responsive to previous standard treatments, were selected based on Eastern Cooperative Oncology Group (ECOG) score≦1.

[2] = test system: HCC patients; experiment: Phase Ib efficacy and survival of HCC patients; format: in vivo, humans
Source text: “CR” means a complete response was achieved after treatment, that is, all signs of cancer in the patient disappeared in response to the treatment.
“SD” means a stable disease state was seen, that is, at the end of the treatment, the disease state of the patient was little changed from pre-treatment conditions.
“OS” means overall survival days of patients. Overall survival is an indication of the proportion of people within a group who are expected to be alive after a specified time, taking into account death due to any cause, both related and unrelated to the cancer in question.
“TTP” means time to progression in the patients, that is, the length of time from the date of diagnosis or the start of treatment for a disease until the disease starts to get worse or spread to other parts of the body. In a clinical trial, measuring the time to progression is one way to see how well a new treatment works.
as §2
(§4) Phase Ib: Advanced cancer patients without standard treatment, especially HCC patients with Child-Pugh Class A or B liver function, were selected.
(§5) Phase Ib: Patients with the following conditions were excluded: ECOG score≧2, ANC≦1500 cells/μL, platelet≦80,000 cells/μL, Hb≦9.0 g/dL, bilirubin>1.5×ULN, AST or ALT>5×ULN, or albumin<2.8 g/dL.
(§6) The patients with the following conditions were also excluded: prior systemic chemotherapy, chemoembolization, percutaneous ethanol injection, or surgery for HCC<30 days.

[3] = Phase Ia pharmacokinetics, plasma concentration before or after meal; format: in vivo, humans; details: for half-life: female, human, plasma, oral
Description: as §2

[4] = test system: patients suffering from advanced breast cancer; experiment: Phase Ia dose-escalating study, tumor assessment every 28 days; format: in vivo, humans
Description: as §1, §2, §3
Tumor assessment was performed every 28 days. […] Further, 1 patient completed 9 cycles.

[5] = test system: patients suffering from advanced solid tumors; experiment: Phase Ib fixed-dose study, (serious) adverse events; format: in vivo, humans
Description: as §2, §4, §5, §6

[6] = 600 mg bid (n = 12), based on evaluable patients, assessment every 2 cycles
[7] = 800 mg bid (n = 5), based on evaluable patients, assessment every 2 cycles

SMILES: COc1ccc(-c2oc3c(CC=C(C)C)c(O)cc(O)c3c(=O)c2O)cc1 [Icaritin]
- Tolerability in patients with advanced malignancies [1]: well tolerated
- Dose tolerated toxicity ([1]; this phase of clinical trial): no dose tolerated toxicity was found
- Best response PD, patients (%) [2, 6]: 4 (40%) patients (%)
- Best response PR, patients (%) [2, 6]: 1 (10%) patients (%)
- Best response SD, patients (%) [2, 6]: 5 (50%) patients (%)
- Best response PD, patients (%) [2, 7]: 3 (60%) patients (%)
- Best response PR, patients [2, 7]: 0 patients
- Best response SD, patients [2, 7]: 0 patients
- Median OS of HCC patients ([2]; Phase Ib, 17 patients analyzed, 95% CI:32-265, FIG. 7): 113 days
- Median TTP of HCC patients ([2]; Phase Ib, FIG. 6): 112 days
- AFP of HCC patient, as treatment progressed ([2]; after decrease under treatment, FIG. 5): 3.53 ng/mL
- Abdominal lymph nodes, B-mode ultrasound image of an HCC patient ([2]; after eight months of treatment, FIG. 4a/4b): complete disappearance of abdominal lymph nodes
- AFP of HCC patient, start value ([2]; before the decrease, FIG. 5): 5216 ng/mL
- Efficacy in hepatocellular cancer ([2]; overall conclusion): promising efficacy
- Plasma concentration after a meal versus fasting ([3]; 800 mg once daily, FIG. 1): higher
- Absorption saturation ([3]; 1600 mg): absorption saturation occurs
- Plasma concentration after a meal versus fasting ([3]; 1600 mg once daily, FIG. 2): higher
- Plasma concentration versus dose ([3]; 400, 800 and 1600 mg once daily after meal, FIG. 3): increases with dose but not in a completely linear pattern
- Bioavailability, post-meal (fed) dosing versus fasting dosing ([3]; 800 and 1600 mg): better bioavailability in fed dosing
- half-life ([3]; 800 mg Icaritin BID): 4.8 ± 2.7 h
- half-life ([3]; 1600 mg Icaritin BID): 4.5 ± 0.8 h
- Maximum plasma concentration at 800 mg compared with 1600 mg ([3]; once daily after meal, FIG. 3): close to the plasma concentration of 1600 mg Icaritin
- Tumor response (CR or PR) ([4]; Phase Ia, 50-1600 mg/day oral, assessment every 28 days): No CR or PR was observed
- Anti-tumor effect in advanced breast cancer ([4]; overall conclusion): potential anti-tumor effect
- G2 drug-related adverse events ([5]; 600 mg and 800 mg BID): no G2 drug-related adverse events was observed
- Serious adverse event Cardiac sudden death, No ([5]; dose 600): 1
- Serious adverse event Cardiac sudden death, outcomes ([5]; dose 600): death
- Serious adverse event Cardiac sudden death, relationship ([5]; dose 600): Unlikely related
- Serious adverse event Dyspnea, No ([5]; dose 600): 2
- Serious adverse event Dyspnea, outcomes ([5]; dose 600): Death
- Serious adverse event Dyspnea, relationship ([5]; dose 600): Not related
- Serious adverse event Liver abscess, No ([5]; dose 600): 1
- Serious adverse event Liver abscess, outcomes ([5]; dose 600): unresolved
- Serious adverse event Liver abscess, relationship ([5]; dose 600): Not related
- Serious adverse event epilepsy, No ([5]; dose 600): 1
- Serious adverse event epilepsy, outcomes ([5]; dose 600): unresolved
- Serious adverse event epilepsy, relationship ([5]; dose 600): Not related
- Serious adverse event GI bleeding, No ([5]; dose 600/800): 2
- Serious adverse event GI bleeding, outcomes ([5]; dose 600/800): resolved/death
- Serious adverse event GI bleeding, relationship ([5]; dose 600/800): Not related
- Serious adverse event Sepsis, No ([5]; dose 800): 1
- Serious adverse event Sepsis, outcomes ([5]; dose 800): resolved
- Serious adverse event Sepsis, relationship ([5]; dose 800): Not related
- Serious adverse effect of pneumonia, relationship to drug ([5]; only one observed during study): not considered drug-related
